Read-outs that look alike come from different tables or passages of the source.
Columns and labels:
PC-3 Cells = test: Cytotoxicity assay (MTS/MTT), PC-3 cells; type: cell-based, human; conditions: for IC50: PC-3 Cells, read-out: Inhibitory Concentration 50 for Cell Growth (IC50)
Protocol: (§1) Cytotoxicity Assay (MTS Assay)
PC-3: human prostate cancer cell strains
(§2) Cells were inoculated in RPMI 1640 cell culture solution with 10% fetal bovine serum (supplemented with 100 ku/L of penicillin, streptomycin, respectively). The petri dishes were left in a cell incubator containing 5% CO2 under the temperature of 37° C. The medium was changed every 2-3 days, and was digested with 0.25% trypsin solution. The cells were subcultured and collected.
(§3) The cells in the exponential phase were formulated into cell suspensions with desired concentrations using RPMI 1640 cell culture solutions containing 10% fetal bovine serum. The suspensions were added into 96-well cell culture plates according to 3,000-5,000 cells per well (100 μl). After being cultured for 24 hr, 100 μl of assay compounds having different concentrations were added into each well. Four parallel tests were conducted for each well. The supernatants were discarded after being cultured for 72-120 hr. 100 μl of 0.5 mg/ml MTT fresh serum-free culture solutions were added into each well. The resultant supernatants were discarded after being cultured for 4 hr at 37° C. Formazan was dissolved with 200 μl DMSO. The resulting mixture was gently shaken for 15 min. Optical absorption values (OD-values) at 570 nm of detection wavelength and 450 nm of reference wavelength were measured with ELISA reader.
The data were represented by x±s. Inhibition Ratio=(OD values in control groups−OD values in administration groups)/OD values in control groups×100%. Anti-cancer effects were represented by maximum inhibition ratio Imax and inhibitory concentration 50 (IC50). Drawings were obtained with software MicroCal Origin. Inhibition curves of assay compounds for inhibiting the growth of tumor cells were fitted by the four-parameter program Logistic in the software so as to give the inhibitory concentration 50 (IC50:μg/ml) for inhibiting the proliferation of tumor cells. […]

A431 Cells = test: Cytotoxicity assay (MTS/MTT), A431 cells; type: cell-based, human
Text: A431: epidermoid cell strains

THP-1 = test: Cytotoxicity assay (MTS/MTT), THP-1 cells; type: cell-based, human; conditions: read-out: Inhibitory Concentration 50 for Cell Growth (IC50)
Text: THP-1: human leukemia cell strains

U937 Cells = test: Cytotoxicity assay (MTS/MTT), U937 cells; type: cell-based, human; conditions: for IC50: U937 Cells, read-out: Inhibitory Concentration 50 for Cell Growth (IC50)
Protocol: as §1
U937: human lymphoma cell strains
as §2, §3
(§4) The data were represented by x±s. Inhibition Ratio=(OD values in control groups−OD values in administration groups)/OD values in control groups×100%. Anti-cancer effects were represented by maximum inhibition ratio Imax and inhibitory concentration 50 (IC50). Drawings were obtained with software MicroCal Origin. Inhibition curves of assay compounds for inhibiting the growth of tumor cells were fitted by the four-parameter program Logistic in the software so as to give the inhibitory concentration 50 (IC50:μg/ml) for inhibiting the proliferation of tumor cells.
The exposure concentrations of the assay compounds were 0.001 μg/ml, 0.003 μg/ml, 0.009 μg/ml, 0.027 μg/ml, 0.082 μg/ml, 0.247 μg/ml, 0.741 μg/ml, 2.222 μg/ml, 6.667 μg/ml and 20 μg/ml. […]

NCI H460 = test: Cytotoxicity assay (MTS/MTT), NCI-H460 cells; type: cell-based, human; conditions: read-out: Inhibitory Concentration 50 for Cell Growth (IC50)
Text: NCI-H460: human lung cancer cell strains

HL-60 cells = test: Cytotoxicity assay (MTS/MTT), HL-60 cells; type: cell-based, human; conditions: for Inhibition Ratio (%): HL-60 cells, concentration of 1 μM
Protocol: as §1
HL-60: human leukemia cell strains
as §2, §3, §4
The exposure concentrations of the assay compounds were 0.001 μg/ml, 0.003 μg/ml, 0.009 μg/ml, 0.027 μg/ml, 0.082 μg/ml, 0.247 μg/ml, 0.741 μg/ml, 2.222 μg/ml, 6.667 μg/ml and 20 μg/ml. The exposure concentrations of adriamycin (as positive drugs) were 1.25 μg/ml, 5 μg/ml and 20 μg/ml. In 96-well plates, 3,000-5,000 cells were inoculated in each well. Four parallel assays were conducted for each concentration.

NCI H446 = test: Cytotoxicity assay (MTS/MTT), NCI-H446 cells; type: cell-based, human; conditions: read-out: Inhibitory Concentration 50 for Cell Growth (IC50)
Protocol: as §1
NCI-H446: human lung cancer cell strains
as §2, §3
(§5) The data were represented by x±s. […]

K562 = test: Cytotoxicity assay (MTS/MTT), K562 cells; type: cell-based, human
Protocol: as §1
K562: human leukemia cell strain
as §2, §3, §5

Hep G2 = test: Cytotoxicity assay (MTS/MTT), Hep G2 cells; type: cell-based, human; conditions: read-out: Inhibitory Concentration 50 for Cell Growth (IC50)
Protocol: as §1
HePG-2: human liver cancer cell strains
as §2, §3, §5

A549 = test: Cytotoxicity assay (MTS/MTT), A549 cells; type: cell-based, human
Protocol: as §1
A549: human lung cancer cell strains
as §2, §3, §5

786-O = test: Cytotoxicity assay (MTS/MTT), 786-O cells; type: cell-based, human
Protocol: as §1
786-O: human kidney cancer cell strains
as §2, §3, §5

DU-145 = test: Cytotoxicity assay (MTS/MTT), DU-145 cells; type: cell-based, human; conditions: read-out: Inhibitory Concentration 50 for Cell Growth (IC50)
Protocol: as §1
DU-145: human prostate cancer cell strains
as §2, §3, §5

Kunming mice = test: Maximum tolerated dose (MTD) in vivo of mice
Protocol: Assays on Maximum Tolerated Dose (MTD) In Vivo of Mice
(1) Assay animals: 9 Kunming Mice, of which five were male and four were female, with a weight of 20-22 g (purchased from Lab Animals Center of Chinese Academy of Medical Sciences, License No. scxk (jin) 2005-0001)
(2) Assay medicine: compound in Example 1
Kunming mice were 9, of which 5 were male and 4 were female. Each mouse was administered the compound in Example 1 (20 mg/kg, iv) with a dose volume of 20 ml/kg.
The process for preparing a solution of the compound in Example 1: 4.53 mg of the compound in Example 1 was weighed and dissolved by adding 40 μL of DMSO (dimethylsulfoxide). 340 μL of RH40 (polyoxyethylene castor oil) were added. After mixing homogeneously, 4.156 mL of physiological saline was added to the mixture. After mixing homogeneously, the mixture was filtered with 0.45 μm filter membrane to give a 1 mg/ml solution of the compound in Example 1.
Observation time: 14 days
Observation indicators: weight, appearance, breath, action, reflection, defecation

[1] = 20 mg/kg via tail vein, observed for 14 days
[2] = single intravenous injection 20 mg/kg, 9 mice, 14 days observation

Work on `COc1cccc2c1C(=O)c1c(O)c3c(c(O)c1C2=O)C[C@@](O)(C(=O)CO)C[C@@H]3O[C@H]1C[C@H](N)[C@@H](O)[C@H](C)O1` [Epirubicin] yielded an IC50 (PC-3 Cells; Homo sapiens) of 110 nM, an IC50 (A431 Cells; Homo sapiens, A-431, read-out: Inhibitory Concentration 50 for Cell Growth (IC50)) of 18 nM and an IC50 (THP-1; Homo sapiens) of 67 nM. For the same compound, the IC50 (U937 Cells; Homo sapiens, U-937) was 10 nM and the IC50 (NCI H460; Homo sapiens) was 25 nM.

`COc1cccc2c1C(=O)c1c(O)c3c(c(O)c1C2=O)C[C@@](O)(C(=O)CO)C[C@@H]3O[C@H]1C[C@H](n2cccc2)[C@@H](O)[C@H](C)O1` [Example 1, 3′-pyrrolyl epirubicin] was tested, and the IC50 (HL-60 cells; HL-60, read-out: Inhibitory Concentration 50 for Cell Growth (IC50)) was 357 nM, the “Inhibition Ratio (%)” value (HL-60 cells) was 80% and the IC50 (PC-3 Cells) was 10 nM. For the same compound, the “Effect on growth of tumor cell strain” value (PC-3 Cells; human prostate cancer PC-3) was “strong inhibitory effects”, the IC50 (A431 Cells; read-out: Inhibitory Concentration 50 for Cell Growth (IC50)) was 6.3 nM and the IC50 (THP-1) was 9 nM. The IC50 (U937 Cells) was 12 nM, the “Effect on growth of tumor cell strain” value (U937 Cells; lymphoma U937) was “strong inhibitory effects” and the IC50 (NCI H460) was 14 nM. The IC50 (NCI H446) was 160 nM, the IC50 (K562; K562, read-out: Inhibitory Concentration 50 for Cell Growth (IC50)) was 44 nM and the “Effect on growth of tumor cell strain” value (K562; human leukemia K562) was “strong inhibitory effects”. The IC50 (Hep G2) was 27 nM, the IC50 (A549; A549, read-out: Inhibitory Concentration 50 for Cell Growth (IC50)) was 206 nM and the “Effect on growth of tumor cell strain” value (A549; lung cancer A549) was “strong inhibitory effects”. The IC50 (786-O; 786-O, read-out: Inhibitory Concentration 50 for Cell Growth (IC50)) was 74 nM, the “Effect on growth of tumor cell strain” value (786-O; kidney cancer 786-0) was “strong inhibitory effects” and the IC50 (DU-145) was 8.6 nM. The “Findings on dissection at the end of the test” value (Kunming mice; 20 mg/kg via tail vein, dissected after 14 days) was “no abnormal phenomena were observed”, the “Change on the weights of the mice” value (Kunming mice; [1]) was “no significant change on the weights” and the “Death of mice” value (Kunming mice; [1]) was “no animal died”. For the same compound, the “Other indicators (appearance, breath, action, reflection, defecation)” value (Kunming mice; [1]) was “not obviously abnormal”, the “Death Number” value (Kunming mice; [2]) was 0 and the “Mortality Rate (%)” value (Kunming mice; [2]) was 0%. For the same compound, the “Average Weight (g) of Mice” value (Kunming mice; single intravenous injection 20 mg/kg, Day 1) was 20.9 g, the “Average Weight (g) of Mice” value (Kunming mice; single intravenous injection 20 mg/kg, Day 2) was 20.2 g and the “Average Weight (g) of Mice” value (Kunming mice; single intravenous injection 20 mg/kg, Day 3) was 20.4 g. For the same compound, the “Average Weight (g) of Mice” value (Kunming mice; single intravenous injection 20 mg/kg, Day 5) was 19.7 g, the “Average Weight (g) of Mice” value (Kunming mice; single intravenous injection 20 mg/kg, Day 6) was 20.2 g and the “Average Weight (g) of Mice” value (Kunming mice; single intravenous injection 20 mg/kg, Day 7) was 19.8 g. For the same compound, the “Average Weight (g) of Mice” value (Kunming mice; single intravenous injection 20 mg/kg, Day 8) was 20.0 g, the “Average Weight (g) of Mice” value (Kunming mice; single intravenous injection 20 mg/kg, Day 9) was 20.1 g and the “Average Weight (g) of Mice” value (Kunming mice; single intravenous injection 20 mg/kg, Day 10) was 20.5 g. For the same compound, the “Average Weight (g) of Mice” value (Kunming mice; single intravenous injection 20 mg/kg, Day 11) was 20.4 g, the “Average Weight (g) of Mice” value (Kunming mice; single intravenous injection 20 mg/kg, Day 12) was 20.4 g and the “Average Weight (g) of Mice” value (Kunming mice; single intravenous injection 20 mg/kg, Day 13) was 20.8 g. For the same compound, the “Average Weight (g) of Mice” value (Kunming mice; single intravenous injection 20 mg/kg, Day 14) was 21.1 g.

With `COc1cccc2c1C(=O)c1c(O)c3c(c(O)c1C2=O)CC(O)(C(=O)CO)CC3OC1CC(N2C(=O)CCC2=O)C(O)C(C)O1` (centres unmarked) [Example 4, 3′-succinimidyl epirubicin] the “Inhibition Ratio (%)” value (HL-60 cells) was 62%.

In the case of `COc1cccc2c1C(=O)c1c(O)c3c(c(O)c1C2=O)CC(O)(C(=O)CO)CC3OC1CC(N2C(=O)CCCC2=O)C(O)C(C)O1` (centres unmarked) [Example 5, 3′-glutarimido epirubicin], the “Inhibition Ratio (%)” value (HL-60 cells) is reported as 35%.

In the case of `COc1cccc2c1C(=O)c1c(O)c3c(c(O)c1C2=O)C[C@@](O)(C(=O)CO)C[C@@H]3O[C@H]1C[C@H](N2C(=O)C=CC2=O)[C@@H](O)[C@H](C)O1` [Example 6, 3′-maleimidyl epirubicin], the “Inhibition Ratio (%)” value (HL-60 cells) is reported as 43%.

With `COc1cccc2c1C(=O)c1c(O)c3c(c(O)c1C2=O)C[C@@](O)(C(=O)CO)C[C@@H]3O[C@H]1C[C@H](N2C(=O)c3cccnc3C2=O)[C@@H](O)[C@H](C)O1` [Example 7, 3′-(pyridino-(2,3)succinimidyl)epirubicin] the “Inhibition Ratio (%)” value (HL-60 cells) was 10%.

With `COc1cccc2c1C(=O)c1c(O)c3c(c(O)c1C2=O)C[C@@](O)(C(=O)CO)C[C@@H]3O[C@H]1C[C@H](N2C(=O)c3ccccc3C2=O)[C@@H](O)[C@H](C)O1` [Example 8, 3′-(benzo-(2,3)succinimidyl)epirubicin] the “Inhibition Ratio (%)” value (HL-60 cells) was 71%.

Reference: patent US8877720B2, “Epirubicin derivatives” (Tianjin Hemay Bio-Tech Co., Ltd., priority 2009, dated 2014)
